We go through 22 compounds from PubChem BioAssay (NCI).

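Five compound concentrations were applied to cells in 96-well plates for 48 hours; endpoints were derived by simple linear interpolation of the resulting dose-response curve. At the TGI there is no net growth.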

In one experiment the test system is OVCAR-4 ovarian. The experiment is described as follows: NCI anticancer screen, dose series, 48 h.
As for `Cc1cccc(/C(Br)=C2/OC(=O)c3ccccc32)c1`, the TGI was greater than 100 µM.

As for `CC1(C)OC2COC3([C@@H]4OC(C)(C)O[C@@H]4CO)OC(C)(C)OC3C2O1` (some centres not stated), the TGI was greater than 100 µM.

In turn, `COC(=O)[C@H](Cc1ccccc1)NC(=O)N(CCC#N)CCN(C(=O)N[C@@H](Cc1ccccc1)C(=O)OC)c1ccccc1` yielded a TGI of 69.2 µM.

`C/C(=N\Nc1nc2ccccc2s1)c1ccc2ccccc2n1` returned a TGI greater than 100 µM.

As for `CN1N=C(c2ccncc2)OC1c1ccccc1F` (configuration not stated), the TGI was greater than 100 µM.

`Cc1ccc(NC(=O)/C(Cc2nc3ccc([N+](=O)[O-])cc3[nH]c2=O)=N\NC(=O)C[n+]2ccccc2)c(C)c1` showed a TGI of 46.6 µM.

The compound `CCN1C(=O)C(=C/C=C/c2ccc(N(CC)CC)cc2)C(=O)N(CC)C1=S` showed a TGI greater than 100 µM.

Another experiment deals with OVCAR-5 ovarian. The experiment is described as follows: NCI anticancer screen, dose series, 48 h.
For the compound `O=C(CC(C(=O)c1ccco1)c1ccco1)c1ccco1` (configuration not stated), the TGI was greater than 100 µM.

Consider `COc1cccc2c1OCC1Cc3ccccc3OC21` (configuration not stated), for which the TGI was greater than 100 µM.

The compound `O=C1CS(=O)(=O)C(c2cccc(Oc3ccccc3)c2)N1c1cc(Cl)ccc1Cl` (configuration not stated) showed a TGI greater than 100 µM.

`COc1ccc(OC)c2sc(N3C(=O)/C(=C/c4cccc([N+](=O)[O-])c4)N=C3c3ccccc3)nc12` displayed a TGI greater than 100 µM.

On to `CC(C)C(N)C(=O)NC(CCC(=O)NCCCCC(N)C(=O)NCCCNc1ccc([N+](=O)[O-])c2[nH]c3ccccc3c(=O)c12)C(N)=O` (configuration not stated), for which the TGI was greater than 100 µM.

For `Cc1cccc(/C(Br)=C2/OC(=O)c3ccccc32)c1`, the TGI is greater than 100 µM.

In turn, `CC#CC(O)(C(=O)OC1CC(C)N(C)C(C)(C)C1)C1CCCC1` (configuration not stated) registered a TGI greater than 100 µM.

Compound `CC1(C)OC2COC3([C@@H]4OC(C)(C)O[C@@H]4CO)OC(C)(C)OC3C2O1` (some centres not stated) gave a TGI greater than 100 µM.

Turning to `CCOC(=O)C1CCC(=O)N1C(=O)c1ccccc1Cl` (configuration not stated), the TGI is greater than 100 µM.

The compound `CCOC(=O)c1ccc(Nc2nc3ccc(C(F)(F)F)cc3nc2C(=O)OCC)cc1` yielded a TGI greater than 100 µM.

Turning to `COc1ccc(C2c3cc4c(cc3OC(NCCO)C2C)OCO4)cc1` (configuration not stated), the TGI is greater than 100 µM.

Compound `COc1cc(/C=C2\CCC(C)/C(=C\c3cc(OC)c(OC)c(OC)c3)C2=O)cc(OC)c1OC` (configuration not stated) showed a TGI of 14.2 µM.

With `COC(=O)[C@H](Cc1ccccc1)NC(=O)N(CCC#N)CCN(C(=O)N[C@@H](Cc1ccccc1)C(=O)OC)c1ccccc1`, the TGI was greater than 100 µM.

`C/C(=N\Nc1nc2ccccc2s1)c1ccc2ccccc2n1` yielded a TGI greater than 100 µM.

Consider `CN1N=C(c2ccncc2)OC1c1ccccc1F` (configuration not stated), for which the TGI was greater than 100 µM.

For `O=C(/C=C/c1ccc2c(c1)OCO2)Cc1nc2ccccc2[nH]c1=O`, the TGI is greater than 100 µM.

The compound `O=[N+]([O-])/C(Cl)=C(\NCCN/C(C(Cl)=C(Cl)Cl)=C(/Cl)[N+](=O)[O-])C(Cl)=C(Cl)Cl` returned a TGI greater than 100 µM.

`Cc1ccc(NC(=O)/C(Cc2nc3ccc([N+](=O)[O-])cc3[nH]c2=O)=N\NC(=O)C[n+]2ccccc2)c(C)c1` displayed a TGI greater than 100 µM.

As for `COc1ccc(/C=N/n2c(C)nc3c(sc(=S)n3-c3ccccc3)c2=O)cc1`, the TGI is greater than 100 µM.

In turn, `CCN1C(=O)C(=C/C=C/c2ccc(N(CC)CC)cc2)C(=O)N(CC)C1=S` had a TGI greater than 100 µM.

Regarding `CC1=NNC(=O)C1C1CC(c2c[nH]c3ccccc23)=NN=C1Cl` (configuration not stated), the TGI was greater than 100 µM.

As to `COc1cc(C2c3cc4c(cc3[C@@H](Nc3ccc5c(c3)OCO5)C3COC(=O)[C@H]23)OCO4)cc(OC)c1O` (some centres not stated), the TGI is greater than 59.4 µM.

The subject of a further experiment is K-562 leukemia. The experiment is described as follows: NCI anticancer screen, dose series, 48 h.
`O=C(CC(C(=O)c1ccco1)c1ccco1)c1ccco1` (configuration not stated) had a TGI greater than 100 µM.

As to `COc1cccc2c1OCC1Cc3ccccc3OC21` (configuration not stated), the TGI is greater than 100 µM.

In turn, `O=C1CS(=O)(=O)C(c2cccc(Oc3ccccc3)c2)N1c1cc(Cl)ccc1Cl` (configuration not stated) showed a TGI greater than 100 µM.

Consider `COc1ccc(OC)c2sc(N3C(=O)/C(=C/c4cccc([N+](=O)[O-])c4)N=C3c3ccccc3)nc12`, for which the TGI worked out at 63.7 µM.

As to `CC(C)C(N)C(=O)NC(CCC(=O)NCCCCC(N)C(=O)NCCCNc1ccc([N+](=O)[O-])c2[nH]c3ccccc3c(=O)c12)C(N)=O` (configuration not stated), the TGI was greater than 100 µM.

Consider `CC#CC(O)(C(=O)OC1CC(C)N(C)C(C)(C)C1)C1CCCC1` (configuration not stated), for which the TGI was greater than 100 µM.

For the compound `CC1(C)OC2COC3([C@@H]4OC(C)(C)O[C@@H]4CO)OC(C)(C)OC3C2O1` (some centres not stated), the TGI is greater than 100 µM.

`CCOC(=O)C1CCC(=O)N1C(=O)c1ccccc1Cl` (configuration not stated) yielded a TGI greater than 100 µM.

`CCOC(=O)c1ccc(Nc2nc3ccc(C(F)(F)F)cc3nc2C(=O)OCC)cc1` had a TGI greater than 100 µM.

`COc1ccc(C2c3cc4c(cc3OC(NCCO)C2C)OCO4)cc1` (configuration not stated) came in with a TGI of 58.8 µM.

The compound `COc1cc(/C=C2\CCC(C)/C(=C\c3cc(OC)c(OC)c(OC)c3)C2=O)cc(OC)c1OC` (configuration not stated) gave a TGI of 6.26 µM.

In the case of `CN1N=C(c2ccncc2)OC1c1ccccc1F` (configuration not stated), the TGI was greater than 100 µM.

As to `O=C(/C=C/c1ccc2c(c1)OCO2)Cc1nc2ccccc2[nH]c1=O`, the TGI is greater than 100 µM.

In turn, `O=[N+]([O-])/C(Cl)=C(\NCCN/C(C(Cl)=C(Cl)Cl)=C(/Cl)[N+](=O)[O-])C(Cl)=C(Cl)Cl` had a TGI greater than 100 µM.

With `COc1ccc(/C=N/n2c(C)nc3c(sc(=S)n3-c3ccccc3)c2=O)cc1`, the TGI is 81.2 µM.

With `CCN1C(=O)C(=C/C=C/c2ccc(N(CC)CC)cc2)C(=O)N(CC)C1=S`, the TGI was greater than 100 µM.

As for `CC1=NNC(=O)C1C1CC(c2c[nH]c3ccccc23)=NN=C1Cl` (configuration not stated), the TGI came out at 88.6 µM.

The compound `COc1cc(C2c3cc4c(cc3[C@@H](Nc3ccc5c(c3)OCO5)C3COC(=O)[C@H]23)OCO4)cc(OC)c1O` (some centres not stated) had a TGI of 9.74 µM.
